Here are results for one compound from patent publication US12318358B2, “Probenecid for use in treating epileptic diseases, disorders or conditions” (PARIS SCIENCES ET LETTRES—QUARTIER LATIN, priority 2017, dated 2025).

Assay [1] deals with human epileptic cortical slices. Nature of the assay: Multi-electrode array (MEA) recordings of ictal-like discharges in human epileptic cortical slices in pro-epileptic conditions. The assay is classed as cell-based. The procedure: The resected cortical block was prepared according to Dossi et al. (J Vis Exp. 2014 Oct. 26; (92):e51870). Briefly, post-surgical tissue was transported in a cold solution containing (in mM) 250 D-sucrose, 25 NaHCO3, 3 KCl, 1 CaCl2, 10 MgCl2 and 10 D-glucose, and oxygenated with carbogen (95% O2 and 5% CO2). Meninges, blood clots and vessels were gently removed and transverse cortical slices (400 μm-thick) were cut with a vibratome (HM650V, Microm Microtech, France). They were maintained at 37° C., equilibrated with 95% 02 and 5% CO2, in an interface chamber, continuously perfused with an artificial cerebro-spinal fluid (ACSF) containing (in mM) 124 NaCl, 3 KCl, 26 NaHCO3, 1.6 CaCl2, 1.3 MgCl2 and 10 D-glucose at 2 ml/min, for at least 1 hour before recording.
Cortical slices were transferred on planar MEA petri dishes (200-30 ITO electrodes, organized in a 12×12 matrix, with internal reference, 30 μm diameter and 200 μm inter-electrode distance; Multichannel Systems, Germany). They were kept in place using a platinum anchor and continuously perfused at a rate of 5-6 ml/min with ACSF.
Pictures of cortical slices on MEAs were acquired with a video microscope table (MEA-VMT1; Multichannel Systems, Germany) through MEA_Monitor software (Multichannel Systems, Germany) to identify the location of the electrodes relatively to the pial surface of the slices. Data were sampled at 10 kHz and the slice activity was recorded at 37° C. by a MEA2100-120 system (bandwidth 1-3000 Hz, gain 5×; Multichannel Systems, Germany) through MC_Rack 4.5.1 software (Multichannel systems, Germany) The activity of the slices was recorded in ACSF containing (in mM) 124 NaCl, 3 KCl, 26 NaHCO3, 1.6 CaCl2, 1.3 MgCl2 and 10 D-glucose (Ct ACSF) and in high potassium, magnesium-free pro-epileptic ACSF containing (in mM) 6 KCl, 0 Mg^2+ (6K 0Mg-ACSF).
To investigate whether probenecid medication could be used as a treatment for epileptic seizures, the electrophysiological activity of human epileptic cortical slices was recorded in pro-epileptic conditions, before and after probenecid administration (1 mM, 30 minutes).

The test system of assay [2] is kainate (KA) mouse model of chronic temporal lobe epilepsy. Kind of assay: Telemetric EEG recording of spontaneous seizures in kainate (KA) mouse model of chronic temporal lobe epilepsy. The assay is classed as in vivo, C57BL/6j male mice. Particulars: for Seizure duration / Seizure frequency: 200 mg/kg i.p. single injection, n = 5. The procedure: Six weeks old C57BL/6j male mice were injected unilaterally with kainate (KA; 0.05 μl, 20 mM in saline) at a rate of 0.5 μl/min in the CA1 area of the right hippocampus (−2 mm anteroposterior, +1.5 mm lateral, −1.4 mm dorso-ventral) by mean of a stereotaxic apparatus and a cannula (0.29 mm diameter) connected to a precision pump. Mice were then left 3 weeks for settling of the chronic epileptic phenotype.
EEG experiments were carried out using wireless ETA-F 10 transmitters (DataSciences International, USA) for chronic EEG recording and video monitoring 3 weeks after KA injection. After anesthesia (ketamine, 95 mg/kg; xylazine, 10 mg/kg; i.p.), a 1 cm midline sagittal incision was made starting above the skull midline and extending along the neck to create a pocket for subcutaneous placement of the transmitter along the dorsal flank of the animal. The recording flexible electrodes (stereotaxic coordinates: −2 mm anteroposterior, +1.5 mm and −1.5 mm lateral) were implanted subdurally through small holes drilled in the skull and held in place with dental cement. Mice were implanted with wireless ETA-F10 transmitters 2 weeks after the KA injection and were allowed to recover for 7 days before recording.
EEG signal was collected through DSI radiofrequency receivers placed under each cage. EEG data were acquired at a sampling rate of 200 Hz using the DSI Dataquest A.R.T. system (version 4.33). To assess therapeutic potential of probenecid, KA mice were recorded with ETA-F10 DSI EEG electrodes for 48 h in their home cage, injected with probenecid (200 mg/kg in corn oil, Sigma-Aldrich; i.p.) and recorded for 24 hours post-treatment. Analysis of seizures was performed using the NeuroScore software (Data Sciences International, USA); seizures were detected on the EEG as spike trains with a minimal amplitude of 1.5× baseline and a minimal duration of 5 s at a frequency ≥1 Hz (Bergstrom et al., Sci Rep. 2013; 3:1483. doi: 10.1038/srep01483). Artifacts were automatically detected using a high detection threshold and removed manually.
To further assess the therapeutic potential of probenecid, we tested the in vivo effect of probenecid i.p. in a kainate (KA) mouse model of chronic temporal lobe epilepsy. To do so, electroencephalogram (EEG) of KA mice were recorded before (48 hours) and after (24 hours) probenecid administration (200 mg/kg) (FIG. 1C).

Setting [3] is: probenecid 1 mM, 30 minutes, pro-epileptic ACSF (6K 0Mg), n = 6 slices.
The mark [4] stands for this setting: 20-24 hours post-treatment, single injection 200 mg/kg i.p.

Structures are written as SMILES.

As for `CCCN(CCC)S(=O)(=O)c1ccc(C(=O)O)cc1` [Probenecid, 4-(dipropylsulfamoyl)benzoic acid], the “Effect on IDs (FIG. 1A example recording)” value in assay [1] (PBN 1 mM, 30 min, PIDs do not disappear) is on record as “disappear”. Besides, the “human cortical slices in which ictal-like discharges (IDs) were fully inhibited” value in assay [1] (probenecid 1 mM, 30 minutes) is given as 5 out of 6. In assay [1] (setting [3]), this compound gave an ID duration of 7.59 ± 7.59 s and an ID frequency of 0.03 ± 0.03 IDs/min. The “ID duration in the remaining slice” value in assay [1] (probenecid 1 mM, 30 minutes, the one slice not fully inhibited) is listed as “halved”. Besides, in assay [2] (4-8 h post-treatment), the Seizure duration result is listed as “no seizure detected” and the Seizure frequency entry is given as “no seizure detected”. Further, the “Effect on spontaneous seizures” value in assay [2] (4 to 8 hours post-treatment, single injection 200 mg/kg i.p., in all mice tested) is “completely blocked”. In assay [2] (setting [4]), the “Duration of reappeared seizures versus pre-treatment” value is listed as “significantly shorter duration” and the “Mice in which seizures reappeared” value is 2 of 5. In addition, in assay [2] (20-24 h post-treatment), the Seizure duration was found to be 3.6 ± 2.25 s and the Seizure frequency is on record as 1.2 ± 0.97 seizure/4 h.
